According to patent US11274332B2, “Methods of administering 3,4-diaminopyridine” (SERB SA, priority 2011, dated 2022):

Key:
[1] = target: T1, cloned human Kv1.1 potassium channel (Homo sapiens, UniProt Q09470); test: PatchXpress inhibition of cloned human Kv1.1 in HEK293 cells (Example 6); format: cell-based; settings: hKv1.1, up to 3000 μM
T1 construct: expressed in transfected cells
Description: (§1) The objective of this study was to examine the in vitro effects and determine the […] of 3,4-DAP phosphate and the metabolite N-(4-aminopyridin-3-yl) acetamide HCl on the following ion channels: cloned human Kv1.1 potassium channel (encoded by the human KCNA1 gene, expressed in HEK293 cells), cloned human Kv1.2 potassium channel (encoded by the human KCNA2 gene, expressed in HEK293 cells), cloned human Kv1.3 potassium channel (encoded by the human KCNA3 gene, expressed in CHO cells), cloned human Kv1.4 potassium channel (encoded by the human KCNA4 gene, expressed in HEK293 cells), cloned human Kv1.5 potassium channel (encoded by the human KCNA5 gene and expressed in CHO cells), responsible for IKur, ultra-rapid delayed rectifier potassium current.
(§2) Chemicals used in solution preparation were purchased from Sigma-Aldrich (St. Louis, Mo.), unless otherwise noted, and were of ACS reagent grade purity or higher. Stock solutions of each test article (100 mM, 30 mM and 1.00 mM 3,4-DAP phosphate and 100 mM N-(4-aminopyridin-3-yl)acetamide) were prepared in sterile water and stored refrigerated. […]
(§3) In preparation for a recording session, intracellular solution was loaded into the intracellular compartments of the Sealchip16. […] After establishment of a whole-cell configuration, membrane currents were recorded using dual-channel patch clamp amplifiers in the PatchXpress®. […]

[2] = target: T2, cloned human Kv1.5 potassium channel (Homo sapiens, UniProt P22460); test: PatchXpress inhibition of cloned human Kv1.5 in CHO cells (Example 6); format: cell-based; settings: hKv1.5, up to 3000 μM
T2 construct: expressed in transfected cells
Description: as §1, §2, §3

T1 sequence (Q09470 whole entry): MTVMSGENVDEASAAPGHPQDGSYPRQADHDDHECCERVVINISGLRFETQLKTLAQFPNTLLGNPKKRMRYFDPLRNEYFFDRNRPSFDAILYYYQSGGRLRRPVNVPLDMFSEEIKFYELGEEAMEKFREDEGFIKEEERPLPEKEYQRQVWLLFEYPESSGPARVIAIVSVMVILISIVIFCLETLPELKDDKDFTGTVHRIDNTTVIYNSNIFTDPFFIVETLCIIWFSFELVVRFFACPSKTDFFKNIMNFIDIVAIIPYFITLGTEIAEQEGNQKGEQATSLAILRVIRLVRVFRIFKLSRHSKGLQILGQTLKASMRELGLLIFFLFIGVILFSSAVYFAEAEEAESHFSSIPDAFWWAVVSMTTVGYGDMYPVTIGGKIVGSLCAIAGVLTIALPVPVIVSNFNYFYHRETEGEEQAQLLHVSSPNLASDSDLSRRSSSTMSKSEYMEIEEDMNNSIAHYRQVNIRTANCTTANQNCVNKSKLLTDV
T2 sequence (P22460 whole entry): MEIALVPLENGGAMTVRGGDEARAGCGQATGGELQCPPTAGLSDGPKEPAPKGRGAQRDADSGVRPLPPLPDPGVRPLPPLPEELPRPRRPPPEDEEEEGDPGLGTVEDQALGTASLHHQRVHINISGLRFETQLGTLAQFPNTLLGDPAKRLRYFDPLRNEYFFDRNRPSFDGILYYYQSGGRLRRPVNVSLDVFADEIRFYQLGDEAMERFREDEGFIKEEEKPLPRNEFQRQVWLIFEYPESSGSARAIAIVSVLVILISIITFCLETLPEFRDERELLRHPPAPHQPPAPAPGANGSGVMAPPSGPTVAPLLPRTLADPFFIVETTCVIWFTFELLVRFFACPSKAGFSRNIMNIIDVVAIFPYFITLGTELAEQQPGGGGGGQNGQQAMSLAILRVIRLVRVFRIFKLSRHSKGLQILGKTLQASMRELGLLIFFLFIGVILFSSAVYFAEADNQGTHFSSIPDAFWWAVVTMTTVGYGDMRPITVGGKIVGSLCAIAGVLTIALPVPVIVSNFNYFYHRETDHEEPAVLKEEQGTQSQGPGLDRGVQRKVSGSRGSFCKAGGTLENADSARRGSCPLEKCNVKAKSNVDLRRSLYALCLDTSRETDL

activity on K+ channel [1]: inactive
activity on K+ channel ([1]; listed as N-acetyl metabolite): not active
activity on K+ channel [2]: inactive
activity on K+ channel ([2]; listed as N-acetyl metabolite): not active
SMILES: CC(=O)Nc1cnccc1N [3-N-acetyl amifampridine, N-(4-aminopyridin-3-yl)acetamide]
